Laboratory results published in article PMC10303900, “Discovery of a New Chalcone-Trimethoxycinnamide Hybrid with Antimitotic Effect: Design, Synthesis, and Structure—Activity Relationship Studies” (Pharmaceuticals, 2023).
Read-outs that look alike come from different tables or passages of the source.

Legend:
[1] = test system: HCT116 (HCT116 p53+/+); assay: SRB growth inhibition assay, colorectal carcinoma cells; format: cell-based; conditions: Homo sapiens, HCT-116
Protocol: (§1) A sulforhodamine B (SRB) assay was performed to evaluate the in vitro growth inhibitory activity of all synthesized hybrids, as well as intermediates in the human tumor cell lines of melanoma (A375-C5), breast adenocarcinoma (MCF-7), and colorectal carcinoma (HCT116), as well as on the non-tumor Human Pulmonary Alveolar Epithelial cell line (HPAEpiC). The concentration inducing 50% cell growth inhibition (GI50), was calculated. […] The overall results prompt us to further investigate the mechanism behind the cytotoxic activities of compounds 6, 7, and 13 in colorectal tumor cells. Moreover, in silico studies were performed, aiming to screen for drug-likeness.
(§2) A375-C5 (melanoma) and MCF-7 (breast adenocarcinoma) cell lines were obtained from the European Collection of Cell Culture, UK, and were grown in RPMI-1640 medium (Roswell Park Memorial Institute, Biochrom, Cambridge, UK) with 5% inactivated FBS (fetal bovine serum, Biochrom). HCT-116 (colon adenocarcinoma) cells were grown in DMEM medium (Dulbecco’s Modified Eagle’s, Biochrom) with 5% inactivated FBS. The non-tumor human pulmonary alveolar epithelial cells (HPAEpiC) were obtained from ScienCell Research Laboratories and grown in DMEM medium supplemented with 10% FBS and 1% non-essential amino acids (Sigma-Aldrich Co., Saint Louis, MO, USA). All cell lines were maintained in a humidified incubator (Hera Cell, Heraeus, Hanau, Germany) at 37 °C and with 5% CO2, and cell viability was regularly monitored using the exclusion trypan blue dye.
(§3) A total of 5.0 × 10^4 A375-C5, MCF-7, and HCT-116 cells, or 6.0 × 10^4 HPAEpiC cells were seeded in 96-well plates and incubated at 37 °C and 5% CO2 to allow for cell attachment. After 24 h, cells were treated with two-fold serial dilutions of test compounds (0–150 µM), or with DMSO as the compound solvent. In parallel, cells in a time-zero (T0) plate, without treatment, were fixed with 50% (m/v) trichloroacetic acid (TCA, Merck Millipore, Darmstadt, Germany), for 1 h at 4 °C, and then washed with distilled water and left to dry. Forty-eight hours after compound treatment, cells were fixed with 50% TCA and stained with SRB (Sigma-Aldrich Co., Ltd., Gillingham, UK) for 30 min at room temperature, followed by 5 rounds of washing with 1% (v/v) acetic acid (Merck Milli-pore, Darmstadt, Germany). SRB–protein complexes were then solubilized with […] Tris buffer (Sigma-Aldrich Co., Ltd., Gillingham, UK) for 30 min, and the absorbance was measured at 515 nm in a microplate reader (Biotek Synergy 2, BioTek Instruments, Inc., Winooski, VT, USA). A dose-response curve was obtained for each cell line, and the concentration that caused 50% cell growth inhibition (GI50) was calculated.

[2] = test system: A375-C5; assay: Sulforhodamine B (SRB) growth inhibition assay, melanoma cells; format: cell-based; conditions: Homo sapiens, 48 h
Protocol: as §1, §2, §3

[3] = test system: MCF-7; assay: SRB growth inhibition assay, breast adenocarcinoma cells; format: cell-based; conditions: Homo sapiens, MCF7, 48 h
Protocol: as §1, §2, §3

[4] = test system: HPAEpiC; assay: SRB growth inhibition assay, non-tumor pulmonary alveolar epithelial cells; format: cell-based; conditions: Homo sapiens, Epithelial cell, 48 h
Protocol: as §1, §2, §3

[5] = test system: A375-C5, MCF-7 and HCT116 cell lines; assay: SRB growth inhibition, range over the tumor cell lines of Table 1; format: cell-based; conditions: Homo sapiens; SAR discussion, values of Table 1
Protocol: Considering the antiproliferative effects on tumor cells of all the studied compounds (Table 1), some SAR considerations may be undertaken (Figure 2). […] Nevertheless, this effect is not observed for the flavone derivatives 15 and 16. […] Additionally, with the screening of the synthetic intermediates, some conclusions can also be inferred (Figure 2).
as §3

[6] = biological target: T1, p53–MDM2 interaction (Homo sapiens, UniProt Q00987); assay: Yeast targeted screening assay of p53–MDM2 interaction; conditions: 10 μM, yeast cell-based assay, data not shown
T1 construct: expressed in transfected cells; host or cells: Saccharomyces cerevisiae strain CG379
Protocol: However, since CM-M345 (1) has been previously reported as a p53-MDM2 inhibitor by our research group, the effect of 10 μM of compounds 6, 7, and 13 on the p53–MDM2 interaction was analyzed using yeast cell-based assays.
Saccharomyces cerevisiae (strain CG379) expressing human wt p53 alone and combined with human MDM2 were obtained in previous works. For the expression of human proteins (routinely grown in minimal selective medium), cells were diluted to 0.05 OD600 in selective induction medium containing 2% (w/w) galactose, 1% (w/w) raffinose, 0.7% (w/w) yeast nitrogen base without amino acids from Difco (Quilaban, Sintra, Portugal), and all the amino acids required for yeast growth ([…]) except leucine and tryptophan. Yeast cells were incubated at 30 °C under continuous orbital shaking (200 rpm) with 10 µM compounds or 0.1% DMSO only, for approximately 42 h (time required by the control yeast, co-transformed with the empty vectors and incubated with DMSO only, to achieve 0.4 OD600). Yeast growth was analyzed by counting the number of colony-forming units (CFU) after 2 days of incubation at 30 °C on Sabouraud Dextrose Agar from Liofilchem (Frilabo, Porto, Portugal).

[7] = test system: HCT116 p53−/−; assay: SRB growth inhibition assay, p53 knocked-out colorectal cells; format: cell-based, human
Protocol: as §3

[8] = test system: HCT116 cells; assay: Mitotic arrest / mitotic index by phase-contrast microscopy; format: cell-based, human; conditions: HCT116, 24 h, phase contrast microscopy
Protocol: Disruption of cell cycle progression is considered one of the most common cytotoxic mechanisms of anticancer drugs. Moreover, the antimitotic effect of BP-M345 (2) has been previously reported. Therefore, compounds 6, 7, and 13 were tested for their capability to induce cell cycle arrest. HCT116 cells were exposed for 24 h to the compounds and then analyzed using phase contrast microscopy for morphological changes. Untreated and dimethyl sulfoxide (DMSO; solvent)-treated cells were used as negative controls. Cell exposure to nocodazole, an antimitotic agent, was used as a positive control. […] We thus calculated the mitotic index (MI), and observed a significant increase in MI in 7-treated cells (22.76 ± 4.30%) compared to the untreated (12.68 ± 1.98%) or DMSO-treated (12.81 ± 1.45%) (Figure 4c).
A total of 1.2 × 10^5 HCT-116 cells were grown in six-well dishes and treated for 24 h with 3.26 µM of compound 7. Cells treated with 1 µM nocodazole were used as a positive control for antimitotic activity. Untreated cells and cells treated with DMSO were included to exclude the cytotoxicity of the compound solvent. Mitotic index, and the percentage of mitotic cells over the total cell population were determined via cell-rounding under phase-contrast microscopy from at least ten random microscope fields.
For phase contrast microscopy images, a Nikon TE 2000-U microscope (Nikon, Amsterdam, The Netherlands) with a 10× objective was used, coupled to a DXM1200F digital camera with Nikon ACT-1 software (Melville, NY, USA). For fluorescence images, an Axio Observer Z.1 SD microscope (Carl Zeiss, Germany) was used, coupled to an AxioCam MR3, with the Plan Apochromatic 63×/NA 1.4 objective. The images were processed using ImageJ, version 1.51.

[9] = test system: HCT116 cells; assay: Apoptosis detection via flow cytometry (Annexin V-FITC/PI); format: cell-based, human; conditions: HCT116, 48 h, vs untreated or DMSO
Protocol: Double labeling with annexin V-FITC and propidium iodide dyes was used to detect cells going through apoptotic events, using a flow cytometer in order to obtain insights into the mechanism by which compounds 6, 7, and 13 generate antiproliferative activity against colorectal carcinoma cells. For that, HCT116 cells were exposed to each compound for 48 h.
To evaluate apoptotic cell death, the “Annexin V-FITC Apoptosis Detection Kit” (eBioscience, Vienna, Austria) was used according to the manufacturer’s instructions. Briefly, 1.2 × 10^5 cells/well were seeded into 6-well plates, and 24 h later, cells were treated with compounds 6, 7, and 13. After 48 h, floating and adherent cells were collected, pelleted via centrifugation (1000 rpm, 5 min), and suspended in binding buffer. Annexin V-FITC was added and incubated for 10 min, protected from light. Cells were washed and resuspended in binding buffer, and 20 μg/mL of propidium iodide (PI) was added. Fluorescence was assessed using the BD Accuri™ C6 Plus flow cytometer (BD Biosciences, Qume Drive, San Jose, CA, USA), and the data were analyzed with the BD Accuri TM C6 Plus software (version 1.0.27.1, San Jose, CA, USA). At least 20,000 events per sample were collected.

[10] = SRB, 48 h, read-out: GI50 HCT116

T1 sequence (Q00987 whole entry): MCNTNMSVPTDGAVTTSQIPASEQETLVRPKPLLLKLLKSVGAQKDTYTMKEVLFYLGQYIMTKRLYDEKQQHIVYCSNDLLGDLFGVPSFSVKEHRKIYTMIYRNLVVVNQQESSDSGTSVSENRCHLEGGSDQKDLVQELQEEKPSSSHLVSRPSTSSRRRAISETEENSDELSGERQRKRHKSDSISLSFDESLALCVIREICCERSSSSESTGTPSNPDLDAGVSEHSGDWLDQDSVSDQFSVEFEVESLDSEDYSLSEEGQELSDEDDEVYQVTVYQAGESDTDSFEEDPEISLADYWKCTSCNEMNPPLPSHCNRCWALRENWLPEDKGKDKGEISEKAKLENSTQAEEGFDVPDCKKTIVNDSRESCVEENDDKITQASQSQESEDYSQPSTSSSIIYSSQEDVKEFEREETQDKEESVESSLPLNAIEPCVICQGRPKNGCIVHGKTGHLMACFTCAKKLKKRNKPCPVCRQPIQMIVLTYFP

| SMILES | melting point [°C] | GI50 [1, 10] [µM] | GI50 [2] [µM] | GI50 [3] [µM] | GI50 [5] [µM] | GI50 ([1]; Table 2, 48 h, read-out: GI50 HCT116 p53+/+) [µM] | SI, selective index (GI50 of HCT116 p53−/−/GI50 of HCT116 p53+/+) [7] | GI50 ([7]; Homo sapiens, HCT-116, Table 2, 48 h) [µM] | GI50 [4] [µM] | Effect on the p53–MDM2 interaction (reversal of the negative growth effect of MDM2 on p53) [6] | Accumulation of bright and rounded (mitotic) cells [8] | Apoptosis induction (Annexin V-positive cells) [9] |
| --- | --- | --- | --- | --- | --- | --- | --- | --- | --- | --- | --- | --- |
| CCCc1c(OCC(=O)O)ccc(C(=O)/C=C/c2cc(OC)c(OC)c(OC)c2)c1OCC(=O)O [Compound 12, (E)-2,2’-((2-propyl-4-(3-(3,4,5-trimethoxyphenyl)acryloyl)-1,3-phenylene)bis(oxy))diacetic acid] | 212 to 214 | > 75 | > 75 | > 75 | > 75 | – | – | – | > 75 | – | – | – |
| CCCc1c(OCC(=O)Nc2cc(OC)c(OC)c(OC)c2)ccc(C(=O)/C=C/c2cc(OC)c(OC)c(OC)c2)c1O [Compound 13, (E)-2-(3-hydroxy-2-propyl-4-(3-(3,4,5-trimethoxyphenyl)acryloyl)phenoxy)-N-(3,4,5-trimethoxyphenyl)acetamide] | – | 2.66 ± 0.87 | 9.37 ± 0.9 | 18.8 ± 3.46 | – | 2.66 ± 0.87 | 1.54 | 4.1 ± 0.5 | 10.8 ± 0.23 | none of the tested compounds significantly reversed the negative inhibitory growth effect of MDM2 on p53 | not observed | induces apoptotic tumor cell death |
| CCCc1c(OCCNC(=O)OC(C)(C)C)ccc2c(=O)cc(-c3cc(OC)c(OC)c(OC)c3)oc12 [Compound 14, tert-butyl (2-((4-oxo-8-propyl-2-(3,4,5-trimethoxyphenyl)-4H-chromen-7-yl)oxy)ethyl)carbamate] | 191 to 193 | > 75 | > 75 | > 75 | – | – | – | – | > 75 | – | – | – |

Further lines, with some results ahead:

| melting point [°C] | GI50 [1, 10] [µM] | GI50 [2] [µM] | GI50 [3] [µM] | GI50 [5] [µM] | GI50 ([1]; Table 2, 48 h, read-out: GI50 HCT116 p53+/+) [µM] | SI, selective index (GI50 of HCT116 p53−/−/GI50 of HCT116 p53+/+) [7] | GI50 ([7]; Homo sapiens, HCT-116, Table 2, 48 h) [µM] | SMILES | GI50 [4] [µM] | Effect on the p53–MDM2 interaction (reversal of the negative growth effect of MDM2 on p53) [6] | Accumulation of bright and rounded (mitotic) cells [8] | Apoptosis induction (Annexin V-positive cells) [9] |
| --- | --- | --- | --- | --- | --- | --- | --- | --- | --- | --- | --- | --- |
| 201 to 203 | 13.5 ± 2.46 | > 75 | > 75 | – | – | – | – | CCCc1c(OCCNC(=O)c2cc(OC)c(OC)c(OC)c2)ccc(C(=O)/C=C/c2cc(OC)c(OC)c(OC)c2)c1O [Compound 8, (E)-N-(2-(3-hydroxy-2-propyl-4-(3-(3,4,5-trimethoxyphenyl)acryloyl)phenoxy)ethyl)-3,4,5-trimethoxybenzamide] | > 75 | – | – | – |
| 200 to 202 | 26.9 ± 1.6 | 29.4 ± 1.05 | 58.3 ± 8.37 | 26.9 to 58.3 | – | – | – | CCCc1c(OCC(=O)O)ccc(C(=O)/C=C/c2cc(OC)c(OC)c(OC)c2)c1O [Compound 11, (E)-2-(3-hydroxy-2-propyl-4-(3-(3,4,5-trimethoxyphenyl)acryloyl)phenoxy)acetic acid] | > 75 | – | – | – |
